This is an account of results in BindingDB's records for doi:10.1111/cbdd.12116 (University of Troms&#163, 2013).

For the assay, the target named is Sodium-dependent serotonin transporter (Rattus norvegicus, UniProt P31652). Description: In vitro Binding Affinity Assay. Particulars: pH 7.7; 25 °C. The procedure: The assay was performed in accordance with the method described by Owens et al. with slight modifications. Rat cerebral cortex was homogenized in 30 volumes of ice-cold 50mM Tris-HCl containing 150mM NaCl and 5mM KCl, pH 7.7, at 25°C and centrifuged at 20,000 x g for 20 min. Pellet was resuspended in 30 volumes of buffer and centrifuged again for 2 more times. The mixture of 240uL of the tissue suspension, 30uL of 1µM imipramine, 30uL of 1nM [3H]-citalopram and 100µL of the analyzed compound (10^-10 to 10^-4M) were incubated at 22°C for 1 h. Incubations were terminated by vacuum filtration and washed twice with 100µL of ice-cold buffer. The radioactivity was measured using a WALLAC 1409 DSA liquid scintillation counter.
Sequence of Sodium-dependent serotonin transporter (P31652 whole entry): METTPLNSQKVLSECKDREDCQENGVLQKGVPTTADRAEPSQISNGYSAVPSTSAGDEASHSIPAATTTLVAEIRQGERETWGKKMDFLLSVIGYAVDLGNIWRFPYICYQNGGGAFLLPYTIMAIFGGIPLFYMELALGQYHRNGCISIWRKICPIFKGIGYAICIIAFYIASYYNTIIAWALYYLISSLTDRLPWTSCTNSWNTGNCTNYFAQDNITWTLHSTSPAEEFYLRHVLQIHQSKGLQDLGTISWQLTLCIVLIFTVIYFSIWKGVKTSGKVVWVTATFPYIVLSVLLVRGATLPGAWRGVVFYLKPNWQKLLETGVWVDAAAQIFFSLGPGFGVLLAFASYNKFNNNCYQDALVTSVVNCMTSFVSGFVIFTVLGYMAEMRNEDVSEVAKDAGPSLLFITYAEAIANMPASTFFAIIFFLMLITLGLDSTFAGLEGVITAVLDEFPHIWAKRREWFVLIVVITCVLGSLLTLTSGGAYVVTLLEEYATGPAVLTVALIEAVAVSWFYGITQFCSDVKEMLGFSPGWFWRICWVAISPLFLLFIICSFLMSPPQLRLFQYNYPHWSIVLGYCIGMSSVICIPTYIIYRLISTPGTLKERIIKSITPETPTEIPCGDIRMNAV
Take `CCCCN1CCN(c2ccc3cc([N+](=O)[O-])ccc3n2)CC1` [2-(4-Butyl-piperazin-1-yl)-6-nitroquinoline (4)]: the Ki stood at 24 nM.

As for `CCCCCCCCCCN1CCN(c2ccc3cc([N+](=O)[O-])ccc3n2)CC1` [2-(4-Decyl-piperazin-1-yl)-6-nitroquinoline (10)], affinity was put at a Ki of 4.5 nM. Next, `CCCCCCCCCCCCN1CCN(c2ccc3cc([N+](=O)[O-])ccc3n2)CC1` [2-(4-Dodecyl-piperazin-1-yl)-6-nitroquinoline (12)]: 16.1 nM; `CCN1CCN(c2ccc3cc([N+](=O)[O-])ccc3n2)CC1` [2-(4-Ethyl-piperazin-1-yl)-6-nitroquinoline (2)]: 86.1 nM; `CCCCCCCN1CCN(c2ccc3cc([N+](=O)[O-])ccc3n2)CC1` [2-(4-Heptyl-piperazin-1-yl)-6-nitroquinoline (7)]: 54.1 nM.

Compound `CCCCCCN1CCN(c2ccc3cc([N+](=O)[O-])ccc3n2)CC1` [2-(4-Hexyl-piperazin-1-yl)-6-nitroquinoline (6)] yielded a Ki of 72.9 nM.

For `CN1CCN(c2ccc3cc([N+](=O)[O-])ccc3n2)CC1` [2-(4-Methyl-piperazin-1-yl)-6-nitroquinoline (1)], the Ki was 1300 nM. Next, `CCCCCCCCCN1CCN(c2ccc3cc([N+](=O)[O-])ccc3n2)CC1` [2-(4-Nonyl-piperazin-1-yl)-6-nitroquinoline (9)]: 1.8 nM. Take `CCCCCCCCN1CCN(c2ccc3cc([N+](=O)[O-])ccc3n2)CC1` [2-(4-Octyl-piperazin-1-yl)-6-nitroquinoline (8)]: the Ki is 20.8 nM. `CCCCCN1CCN(c2ccc3cc([N+](=O)[O-])ccc3n2)CC1` [2-(4-Pentyl-piperazin-1-yl)-6-nitroquinoline (5)] returned a Ki of 80.5 nM. Compared with the last compound, the Ki is about 3.9-fold higher.

Turning to `CCCN1CCN(c2ccc3cc([N+](=O)[O-])ccc3n2)CC1` [2-(4-Propyl-piperazin-1-yl)-6-nitroquinoline (3)], affinity was put at a Ki of 496 nM. Compared with the last compound, the Ki is about 6.2-fold higher. As for `CCCCCCCCCCCN1CCN(c2ccc3cc([N+](=O)[O-])ccc3n2)CC1` [2-(4-Undecyl-piperazin-1-yl)-6-nitroquinoline (11)], the figure is 12.6 nM.
